In US8703829B2, “Therapeutic compounds” (University of Louisville Research Foundation, Inc., priority 2007, dated 2014):

Legend:
[1] = test system: panel of 60 human tumor cell lines; experiment: Test D: screen against a panel of 60 human tumor cell lines; format: cell-based
Text: Test D Anti-Cancer Activity
The compound of Example 1 below was screened against a panel of 60 human tumor cell lines.

[2] = test system: total DNA methyltransferase activity in A549 non-small cell lung cancer cells; experiment: Test E experiments 1 and 2: DNA methyltransferase activity of nuclear extracts from treated A549 cells (EpiQuik kit); format: cell-based, human
Description: (§1) Test E The Methyltransferase Activity of the Compound of Example 1 was Evaluated as Follows.
(§2) For experiments 1 and 2, A549 non-small cell lung cancer cells were incubated with the compound of Example 1 (1 μM final concentration) or vehicle (untreated) for 2 h and nuclear extracts were prepared by standard methods. The total DNA methyltransferase activity of the extracts was measured using EpiQuik™ DNA Methyltransferase Activity/Inhibition Assay Kit (Epigentek, Brooklyn, N.Y.), according to the manufacturer's directions. For experiment 3, the assay was carried out using purified HeLa nuclear extracts in the presence of the compound of Example 1 (500 nM final concentration) or vehicle (untreated).
(§3) The assay involves incubation of nuclear extracts (as a source of DNA methyltransferase activity) with immobilized DNA substrate in the presence of Adomet (methyl donor). The DNA methyltransferase activity was measured by determining levels of 5-methylcytosine in the DNA substrate using a primary antibody to 5-methylcytosine and a secondary antibody for colorimetric detection at 450 nm.

[3] = test system: DNA methyltransferase activity of HeLa nuclear extracts; experiment: Test E experiment 3: DNA methyltransferase activity of purified HeLa nuclear extracts incubated in vitro with compound (EpiQuik kit); format: biochemical; settings: experiment 3: 20 μg HeLa nuclear extracts incubated in vitro with 500 nM; untreated 0.264
Description: as §1, §2, §3

[4] = test system: A549 human non-small cell lung cancer xenografts; format: in vivo
Text: FIG. 2. […] (A) Tumor growth appeared to be reduced in mice treated with the compound of Example 1, but the effect was not statistically significant (p≧0.13). […] Compare with the mean±SE in the control group.
Test F In-vivo Effects of Compound of Example 1.
The following study was designed to assess toxicity and activity in female nude mice bearing A549 human non-small cell lung cancer xenografts. Athymic nude mice were inoculated subcutaneously (s.c.) with A549 cells and treatment began after small tumors were visible. The compound of Example 1 was prepared at 100 mg/ml or 50 mg/ml in DMSO and diluted 1:10 with sterile PBS. Mice were treated by intraperitoneal (i.p.) injections of 100 μl of these solutions, equivalent to approximately 25 mg/kg or 50 mg/kg; the control group received identical injections of vehicle (10% DMSO in PBS). Mice received injections of the compound of Example 1 or vehicle five times per week (once per day, except on weekends) for up to 30 injections. […] Evaluating the long-term outcome was complicated by the fact that several animals in the compound of Example 1 treated groups developed tumor necrosis/ulceration and had to be euthanized before the end of the experiment, as required by IACUC protocol. This tumor necrosis is believed to be treatment-related as it occurred in 5/12 treated animals, but 0/6 of the control group. […] The overall response seemed to be equivalent or better in the low dose group compared with the high dose group, but that may be consistent with the mechanism of action, since a similar effect has been observed for decitabine in humans.

CCCCCC(O)C#CC(F)(F)Br (stereo not drawn) [Example 1, 1-bromo-1,1-difluoro-non-2-yn-4-ol]
GI50 ([1]; Homo sapiens, all seven breast cancer cell lines, including a doxorubicin-resistant line): 10 to 66 nM | activity by tumor type ([1]; breast, prostate, colon and brain (CNS) tumor cells): highly active | activity by tumor type ([1]; other tumor types, e.g. melanomas): less potent | Relative DNA Methyltransferase Activity ([2]; experiment 1: nuclear extracts from lung cancer cells treated 1 μM for 2 h, untreated 0.114): 0.073 | Relative DNA Methyltransferase Activity ([2]; experiment 2 (repeat): nuclear extracts from lung cancer cells treated 1 μM for 2 h, untreated 0.122): 0.075 | Relative DNA Methyltransferase Activity [3]: 0.092 | tumor necrosis/ulceration, treated animals affected ([4]; approx. 25 or 50 mg/kg i.p., 0/6 in the control group): 5/12 | tumor growth compared to control-treated mice ([4]; approx. 25 or 50 mg/kg i.p., difference not statistically significant (p≧0.13)): grew slower | size of ulcerated tumors versus control group at the same time point ([4]; treated mice euthanized early due to tumor necrosis): substantially smaller
